Measurements from patent KR20150001353A, “Fms 키나아제 저해 활성을 갖는 피리미딘 유도체” (한미약품 주식회사, priority 2013, dated 2015).

Legend:
[1] = biological target: T1, recombinant human FMS kinase (재조합 인간 FMS 키나아제) (Homo sapiens, UniProt P07333); experiment: FMS kinase inhibitory activity evaluation (Test Example 1; FRET, Z'-Lyte kinase assay-Tyr 1 peptide kit); format: biochemical; details: 0.3 µg/mL FMS, 150 μM ATP, room temperature, 1 h
T1 construct: purchased Invitrogen pv3249

[2] = system: M-NFS-60 cell line (M-NFS-60 세포주); experiment: M-NFS-60 cell line evaluation (Test Example 2; MTT, CellTiter 96 Assay); format: cell-based; details: recombinant M-CSF 20 ng/mL, 5% FBS, compound 10 μM to 0.1 nM, 590 nm

T1 sequence (P07333 20-972): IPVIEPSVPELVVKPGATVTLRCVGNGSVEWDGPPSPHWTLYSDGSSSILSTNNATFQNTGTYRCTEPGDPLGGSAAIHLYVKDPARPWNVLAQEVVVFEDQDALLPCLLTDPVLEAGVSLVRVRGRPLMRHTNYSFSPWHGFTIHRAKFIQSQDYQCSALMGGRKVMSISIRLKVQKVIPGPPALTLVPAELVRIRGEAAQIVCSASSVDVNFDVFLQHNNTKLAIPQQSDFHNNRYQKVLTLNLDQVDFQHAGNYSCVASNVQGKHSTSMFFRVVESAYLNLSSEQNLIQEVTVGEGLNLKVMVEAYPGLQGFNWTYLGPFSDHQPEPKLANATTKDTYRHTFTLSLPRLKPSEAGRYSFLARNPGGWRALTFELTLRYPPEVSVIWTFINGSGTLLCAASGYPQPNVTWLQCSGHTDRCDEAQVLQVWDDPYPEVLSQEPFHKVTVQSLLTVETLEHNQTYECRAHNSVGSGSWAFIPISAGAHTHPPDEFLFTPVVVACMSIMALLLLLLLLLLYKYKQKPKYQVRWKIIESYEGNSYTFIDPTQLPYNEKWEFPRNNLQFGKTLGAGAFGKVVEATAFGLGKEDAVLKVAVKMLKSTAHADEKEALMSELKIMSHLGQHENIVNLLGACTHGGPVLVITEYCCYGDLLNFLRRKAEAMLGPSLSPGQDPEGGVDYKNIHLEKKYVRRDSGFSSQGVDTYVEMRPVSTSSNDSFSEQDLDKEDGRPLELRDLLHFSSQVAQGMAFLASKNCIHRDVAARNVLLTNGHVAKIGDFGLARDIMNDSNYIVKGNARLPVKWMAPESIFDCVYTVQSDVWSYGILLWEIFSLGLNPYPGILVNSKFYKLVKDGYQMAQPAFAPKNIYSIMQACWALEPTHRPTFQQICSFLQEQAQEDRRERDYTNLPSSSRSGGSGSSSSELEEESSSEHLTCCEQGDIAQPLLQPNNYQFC

IC50 [1] [nM] | SMILES | IC50 [2] [nM]
65 | COc1ccc(CNc2cc(N(C)C(=O)Nc3cccc4c3c(C)nn4Cc3cccc(F)n3)ncn2)c(OC)c1 [실시예 9, 1-(6-(2,4-디메톡시벤질아미노)피리미딘-4-일)-3-(1-((6-플루오로피리딘-2-일)메틸)-3-메틸-1H-인다졸-4-일)-1-메틸우레아] | 
14 | COc1cccc(Cn2nc(C)c3c(NC(=O)N(C)c4cc(N)ncn4)cccc32)c1 [실시예 18, 1-(6-아미노피리미딘-4-일)-3-(1-(3-메톡시벤질)-3-메틸-1H-인다졸-4-일)-1-메틸우레아] | 201
